Laboratory results taken from patent US20230247997A1 (published 2023).

| SMILES | melting point [°C] |
| --- | --- |
| COc1nc(-c2ccc(Cl)cc2)ns1 | 137 to 139 |
| COc1cccc(-c2nsc(OC)n2)c1 | 73 to 75 |
| COc1nc(-c2ccc([N+](=O)[O-])cc2)ns1 | 138 to 140 |
| COc1nc(-c2ccccc2)nc(-c2ccccc2)n1 | 109 to 111 |
| COc1nc(-c2ccc(F)cc2)nc(-c2ccc(F)cc2)n1 | 173 to 174 |
| COc1nc(-c2ccc(Cl)cc2)nc(-c2ccc(Cl)cc2)n1 | 192 to 194 |
| COc1cccc(-c2nc(OC)nc(-c3cccc(OC)c3)n2)c1 | 126 to 128 |
| CCSc1nc(-c2ccc(F)cc2)ns1 | 35 to 36 |
| CCSc1nc(-c2ccc(Cl)cc2)ns1 | 44 to 45 |
| CSc1nc(-c2ccc(Cl)cc2)ns1 | 105 to 107 |
| CCSc1nc(-c2ccc(Br)cc2)ns1 | 36 to 37 |
| CCSc1nc(-c2ccc(OC)cc2)ns1 | 54 to 56 |
| CCSc1nc(-c2ccc([N+](=O)[O-])cc2)ns1 | 103 to 104 |
| CCSc1nc(-c2ccncc2)ns1 | 49 to 50 |
| CCSc1nc(-c2cnccn2)ns1 | 60 to 62 |
| CCOC(=O)C=C1N=C(SCC)SN1 | 128 to 129 |
| CCSC1=NC(=CC(N)=O)NS1 | 140 to 142 |
| CCSc1nc(OC)ns1 | 35 to 37 |
| CCSc1nc(N(C)C)ns1 | 116 to 118 |
